Columns and labels:
Assay type in all cases: functional, cell-based
A549 = test: Cytotoxic activity against human A549 cells assessed as reduction in cell viability after 72 hrs by SRB assay; conditions: A549, 72 h
SK-OV-3 = test: Cytotoxic activity against human SKOV3 cells assessed as reduction in cell viability after 72 hrs by SRB assay; conditions: SK-OV-3, 72 h
PC-3 = test: Cytotoxic activity against human PC3 cells assessed as reduction in cell viability after 72 hrs by SRB assay; conditions: PC-3, 72 h

Row | SMILES | IC50 (A549) [µM] | IC50 (SK-OV-3) [µM] | IC50 (PC-3) [µM]
1 | C[C@]12CC=C3C(=O)OC[C@@H]3[C@@H]1CCc1ccccc12 | > 100 | > 100 | > 100
2 | CC(C)c1ccc2c(c1)CC[C@H]1[C@](C)(C(=O)O)CCC[C@]21C [DEHYDROABIETIC ACID] | 74.3 | 66 | 51.3
3 | C=CCc1cc(C(C)C)c(O)c2c1[C@@]1(C)CCC3=C(COC3=O)[C@@H]1CC2=O | 97.5 | 87.1 | 95.1
4 | COC(=O)[C@]1(C)CCC[C@@]2(C)[C@H]1CC=C1C=C(C(C)C)CC[C@@H]12 [METHYL ABIETATE] | 63.1 | 81.3 | 79.3
5 | COC(=O)[C@]1(C)CCC[C@@]2(C)[C@H]1CC=C1C(=O)[C@@](O)(C(C)C)CC[C@@H]12 | 85.1 | 99.2 | > 100
6 | C=C1C(=O)CC[C@]2(C)c3cccc(OC)c3CC[C@@H]12 | 5.47 | 3.31 | 5.01
7 | C[C@]12CCC3=C(COC3=O)[C@@H]1CCc1ccccc12 | > 100 | > 100 | > 100
8 | COc1c(C(C)C)ccc2c1CC[C@H]1C(=O)CCC[C@]21C | > 100 | > 100 | > 100
9 | C=CCOc1cccc2c1C(=O)C[C@H]1C3=C(CC[C@]21C)C(=O)OC3 | 89.4 | > 100 | > 100
10 | COC(=O)[C@]1(C)CCC[C@]2(C)c3ccc(C(C)C)c(OC)c3[C@H](O)C[C@@H]12 | 76.6 | 72.2 | 55.9
11 | COc1c(C(C)C)ccc2c1CC[C@H]1[C@@H](O)CCC[C@]21CO[N+](=O)[O-] | > 100 | > 100 | > 100
12 | COc1c(C(C)C)ccc2c1CC[C@H]1C(=O)CCC[C@]21CO[N+](=O)[O-] | > 100 | > 100 | > 100
13 | COC(=O)[C@]1(C)CCC[C@]2(C)c3cc([N+](=O)[O-])c(C(C)C)cc3CC[C@@H]12 | 89.4 | 47.8 | 81.9
14 | C=C1[C@H](O[Si](C)(C)C(C)(C)C)CC[C@]2(C)c3ccccc3CC[C@@H]12 | 97.9 | 91.8 | > 100
15 | CC(C)c1ccc2c(c1O)C(=O)C[C@H]1C3=C(CC[C@]21C)C(=O)OC3 | 77.3 | 42.5 | 58
16 | CC(C)(C)[Si](C)(C)O[C@@H]1CC[C@]2(C)c3ccccc3CC[C@H]2[C@H]1CO | > 100 | > 100 | > 100
17 | COc1c(C(C)C)ccc2c1CC[C@H]1c3cocc3CC[C@]21C | 27.4 | 21.3 | 19.3
18 | CC(C)C1=CC2=CC[C@@H]3[C@](C)(CCC[C@@]3(C)C(=O)O)[C@H]2CC1 [ABIETIC ACID] | > 100 | 90.4 | > 100
19 | C=C1[C@H](O)CC[C@]2(C)c3ccc(C(C)C)c(OC)c3CC[C@@H]12 | 99.6 | > 100 | > 100
20 | COC(=O)[C@]1(C)CCC[C@]2(C)c3ccc(C(C)C)cc3CC[C@@H]12 [METHYL DEHYDROABIETATE] | 41.2 | 51.3 | 37.7
21 | C=C1C(=C(SC)SC)CC[C@]2(CO)c3ccc(C(C)C)c(OC)c3CC[C@@H]12 | 53.8 | 32.9 | 50.1
22 | COc1c(C(C)C)ccc2c1CC[C@H]1[C@@H](O)CCC[C@]21C | > 100 | > 100 | 98.2

Row | SMILES | IC50 (A549) [µM] | IC50 (SK-OV-3) [µM] | IC50 (PC-3) [µM]
23 | CCOCC[C@]12CCC3=C(COC3=O)[C@@H]1CCc1c2ccc(C(C)C)c1OC | > 100 | > 100 | > 100
24 | COC(=O)[C@]1(C)CCC[C@]2(C)c3ccc(C(C)C)c(O)c3CC[C@@H]12 | 56 | 42.9 | 22.3
25 | C=C1C(=C(SC)SC)CC[C@]2(COCOCC)c3ccc(C(C)C)c(OC)c3CC[C@@H]12 | 99.8 | 26 | 19.4
26 | COc1c(C(C)C)ccc2c1CC[C@@]1(O)C3=C(CC[C@]21C)C(=O)OC3 | > 100 | > 100 | > 100
27 | C=C1CCC[C@]2(C)c3ccc(C(C)C)c(OC)c3CC[C@@H]12 | 99.1 | > 100 | > 100
28 | COc1c(C(C)C)ccc2c1CC=C1C3=C(CCC12C)C(=O)OC3 (single isomer, unassigned) | 74.9 | 24 | 48
29 | COc1c(C(C)C)ccc2c1C=C[C@H]1C3=C(CC[C@]21C)C(=O)OC3 | > 100 | > 100 | > 100
30 | CC(C)c1ccc2c(c1O)C(=O)C[C@H]1C3=C(CC[C@]21CO)C(=O)OC3 | > 100 | 95.4 | 92.2
31 | CC(C)[C@]12O[C@H]1[C@@H]1O[C@]13[C@]1(O[C@H]1C[C@H]1C4=C(CC[C@@]13C)C(=O)OC4)[C@@H]2O [TRIPTOLIDE] | 0.0175 | 0.0072 | 0.0183
32 | C=C1C(CO)=CC[C@]2(C)c3ccc(C(C)C)c(OC)c3C(=O)C[C@@H]12 | > 100 | > 100 | > 100
33 | COc1c(C(C)C)ccc2c1CC[C@H]1[C@@H](CO)[C@H](O)CC[C@]21C | > 100 | > 100 | > 100
34 | C=CCOc1c(C(C)C)ccc2c1C(=O)C[C@H]1C3=C(CC[C@]21C)C(=O)OC3 | > 100 | 82.4 | 98.3
35 | COc1cccc2c1CC[C@H]1[C@@H](CO)[C@H](O[Si](C)(C)C(C)(C)C)CC[C@]21C | > 100 | > 100 | > 100
36 | COC(=O)[C@]1(C)CCC[C@@]2(C)[C@H]1CC=C1[C@@H]2CC[C@](O)(C(C)C)[C@H]1O | 92.4 | 92.9 | > 100
37 | CC(C)c1ccc2c(c1O)CC[C@H]1C3=C(CC[C@]21C)C(=O)OC3 [TRIPTOPHENOLIDE] | > 100 | > 100 | > 100
38 | COc1cccc2c1CC[C@H]1[C@H]3COC(=O)C3=CC[C@]21C | 88.9 | > 100 | > 100
39 | COc1c(C(C)C)ccc2c1CC[C@@]1(O)C3=C(C(=O)OC3)[C@@H](O)C[C@]21C | > 100 | 92.2 | > 100
40 | COc1cccc2c1CC[C@H]1C3=C(CC[C@]21C)C(=O)OC3 | > 100 | > 100 | > 100
41 | COc1cccc2c1CC[C@H]1[C@H]3COC(=O)[C@@]3(O)C(=O)C[C@]21C | > 100 | > 100 | > 100
42 | COC(=O)[C@]1(C)CCC[C@]2(C)c3ccc(C(C)C)c([N+](=O)[O-])c3CC[C@@H]12 | > 100 | > 100 | > 100
43 | COC(=O)C1=C[C@@H]2CCc3c(ccc(C(C)C)c3OC)[C@@]2(C)CC1 | > 100 | > 100 | > 100
44 | COC(=O)[C@]1(C)CCC[C@]2(C)c3ccc(C(C)C)c(OC)c3CC[C@@H]12 | > 100 | 65.2 | 59.9
